Experimental data taken from PubChem BioAssay AID330 (DTP/NCI, 2004).
Values joined by “and” are separate entries in the source; they are usually repeats but may differ in a detail not shown here. Equal entries are not always repeated. Toxic doses and inconclusive results are not listed.

System: P388 leukemia ip, CD2F1 mice, survival T/C
Assay: NCI In Vivo Anticancer Drug Screen. Data for tumor model P388 Leukemia (intraperitoneal) in CD2F1 (CDF1) mice
Conditions: endpoint: median survival time, higher = longer survival
Procedure, shortened: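 Mice carrying the transplanted tumor received test compound or vehicle. Survival was recorded in each group, and the value is the treated-group measurement divided by that of the vehicle-treated control group.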

[1] = dose: 60.0 mg/kg/injection, schedule: Q01DX005 (ip), vehicle: saline with Tween-80
[2] = dose: 120.0 mg/kg/injection, schedule: Q01DX005 (ip), vehicle: saline with Tween-80
[3] = dose: 240.0 mg/kg/injection, schedule: Q01DX005 (ip), vehicle: saline with Tween-80
[4] = dose: 50.0 mg/kg/injection, schedule: Q01DX005 (ip), vehicle: Klucel (hydroxypropylcellulose) (HPC)
[5] = dose: 100.0 mg/kg/injection, schedule: Q01DX005 (ip), vehicle: Klucel (hydroxypropylcellulose) (HPC)
[6] = dose: 200.0 mg/kg/injection, schedule: Q01DX005 (ip), vehicle: Klucel (hydroxypropylcellulose) (HPC)
[7] = dose: 50.0 mg/kg/injection, schedule: Q01DX005 (ip), vehicle: saline
[8] = dose: 100.0 mg/kg/injection, schedule: Q01DX005 (ip), vehicle: saline
[9] = dose: 200.0 mg/kg/injection, schedule: Q01DX005 (ip), vehicle: saline
[10] = dose: 50.0 mg/kg/injection, schedule: Q01DX005 (ip), vehicle: saline with Tween-80
[11] = dose: 100.0 mg/kg/injection, schedule: Q01DX005 (ip), vehicle: saline with Tween-80
[12] = dose: 100.0 mg/kg/injection, schedule: Q01DX001 (ip), vehicle: Klucel (hydroxypropylcellulose) (HPC)
[13] = dose: 200.0 mg/kg/injection, schedule: Q01DX001 (ip), vehicle: Klucel (hydroxypropylcellulose) (HPC)
[14] = dose: 400.0 mg/kg/injection, schedule: Q01DX001 (ip), vehicle: Klucel (hydroxypropylcellulose) (HPC)
[15] = dose: 5.0 mg/kg/injection, schedule: Q01DX009 (ip), vehicle: Klucel (hydroxypropylcellulose) (HPC)
[16] = dose: 10.0 mg/kg/injection, schedule: Q01DX009 (ip), vehicle: Klucel (hydroxypropylcellulose) (HPC)
[17] = dose: 50.0 mg/kg/injection, schedule: Q01DX009 (ip), vehicle: saline with Tween-80
[18] = dose: 100.0 mg/kg/injection, schedule: Q01DX009 (ip), vehicle: saline with Tween-80

Cc1ccc(S(=O)(=O)OCC2COC(C(C)C)OC2)cc1 (centres undefined)
T/C [1]: 99 % of control | T/C [2]: 90 % of control | T/C [3]: 90 % of control

COC(=O)C1=NC(=S)N=C(C(=O)OC)C1(C)C(=O)c1ccc(Cl)cc1
T/C [1]: 95 % of control | T/C [2]: 99 % of control | T/C [3]: 94 % of control

COc1cccc2c1C(=O)c1c(O)c3c(c(O)c1C2=O)C[C@@](O)(C(C)=O)C[C@@H]3OC1CC(N(Cc2ccccc2)Cc2ccccc2)C(O)C(C)O1 (some centres undefined)
T/C (dose: 0.78 mg/kg/injection, schedule: Q01DX009 (ip), vehicle: water): 105 % of control | T/C (dose: 1.56 mg/kg/injection, schedule: Q01DX009 (ip), vehicle: water): 114 % of control | T/C (dose: 6.25 mg/kg/injection, schedule: Q01DX009 (ip), vehicle: water): 156 % of control | T/C (dose: 12.5 mg/kg/injection, schedule: Q01DX009 (ip), vehicle: water): 189 % of control and 221 % of control | T/C (dose: 13.0 mg/kg/injection, schedule: Q04DX003 (ip), vehicle: water): 158 % of control | T/C (dose: 21.6 mg/kg/injection, schedule: Q04DX003 (ip), vehicle: water): 180 % of control | T/C (dose: 25.0 mg/kg/injection, schedule: Q01DX009 (ip), vehicle: water): 247 % of control and 271 % of control | T/C (dose: 50.0 mg/kg/injection, schedule: Q01DX009 (ip), vehicle: water): 92 % of control | T/C (dose: 60.0 mg/kg/injection, schedule: Q04DX003 (ip), vehicle: water): 94 % of control

OCC(O)c1c(-c2ccccc2)c(-c2ccccc2)c2n1CCC2 (centres undefined)
T/C [4]: 96 % of control | T/C [5]: 93 % of control | T/C [6]: 92 % of control

N=C(N)c1ccc(N=Nc2c(O)c(C(=O)Nc3ccccc3)cc3ccccc23)cc1
T/C [4]: 100 % of control | T/C [5]: 101 % of control | T/C [6]: 100 % of control

COc1cccc2c1C(=O)c1c(O)c3c(c(O)c1C2=O)C[C@@](O)(C(=O)CSC(=O)c1ccccc1)C[C@@H]3OC1CC(N)C(O)C(C)O1 (some centres undefined)
T/C (dose: 25.0 mg/kg/injection, schedule: Q01DX001 (ip), vehicle: water): 123 % of control | T/C (dose: 50.0 mg/kg/injection, schedule: Q01DX001 (ip), vehicle: water): 109 % of control

NNC(N)=NC1CCCCC1
T/C [4]: 95 % of control | T/C [5]: 97 % of control

CC(C)(C)N1CCOCN2CCCCC2CCN(C(C)(C)C)CCOCN2CCCCC2CC1 (centres undefined)
T/C [7]: 100 % of control | T/C [8]: 99 % of control | T/C [9]: 100 % of control

O=S1(=O)CC(Cl)(Cl)C1
T/C [10]: 102 % of control | T/C [11]: 109 % of control

O=C(O)CCCOc1ccc(Cl)cc1Cl
T/C (dose: 100.0 mg/kg/injection, schedule: Q04DX003 (ip), vehicle: saline): 109 % of control | T/C (dose: 200.0 mg/kg/injection, schedule: Q04DX003 (ip), vehicle: saline): 100 % of control | T/C (dose: 400.0 mg/kg/injection, schedule: Q04DX003 (ip), vehicle: saline): 100 % of control

CC(C)CC1NC(CC(C)C)N2C(CC(C)C)N12 (centres undefined)
T/C [12]: 103 % of control | T/C [13]: 103 % of control | T/C [14]: 99 % of control

COc1cc(O)c(C(c2ccccc2)c2c(O)c(C)c(O)c3c2OC(c2ccccc2)CC3=O)c(O)c1C (centres undefined)
T/C [15]: 99 % of control | T/C [16]: 99 % of control | T/C (dose: 20.0 mg/kg/injection, schedule: Q01DX009 (ip), vehicle: Klucel (hydroxypropylcellulose) (HPC)): 103 % of control | T/C (dose: 40.0 mg/kg/injection, schedule: Q01DX009 (ip), vehicle: Klucel (hydroxypropylcellulose) (HPC)): 99 % of control

COC(=O)c1cc(=O)n(-c2ccccc2)c(SC)n1
T/C (dose: 6.25 mg/kg/injection, schedule: Q04DX002 (ip), vehicle: Klucel (hydroxypropylcellulose) (HPC)): 106 % of control | T/C (dose: 12.5 mg/kg/injection, schedule: Q04DX002 (ip), vehicle: Klucel (hydroxypropylcellulose) (HPC)): 96 % of control | T/C (dose: 25.0 mg/kg/injection, schedule: Q04DX002 (ip), vehicle: Klucel (hydroxypropylcellulose) (HPC)): 98 % of control | T/C (dose: 50.0 mg/kg/injection, schedule: Q04DX002 (ip), vehicle: Klucel (hydroxypropylcellulose) (HPC)): 104 % of control | T/C (dose: 100.0 mg/kg/injection, schedule: Q04DX002 (ip), vehicle: Klucel (hydroxypropylcellulose) (HPC)): 100 % of control and 98 % of control

CCCCN(CCCC)CCC(O)c1cc2c(Cl)cc(Cl)cc2c2cc(C(F)(F)F)ccc12 (centres undefined)
T/C [17]: 100 % of control | T/C [18]: 96 % of control

CN1C(c2ccccc2)=NN=C(C(F)(F)F)N1C
T/C (dose: 100.0 mg/kg/injection, schedule: Q01DX001 (ip), vehicle: distilled water + Tween-80 + alcohol): 98 % of control | T/C (dose: 200.0 mg/kg/injection, schedule: Q01DX001 (ip), vehicle: distilled water + Tween-80 + alcohol): 101 % of control | T/C (dose: 400.0 mg/kg/injection, schedule: Q01DX001 (ip), vehicle: distilled water + Tween-80 + alcohol): 106 % of control

O=C(NC(=S)c1ccc(Cl)cc1)Nc1ccccc1
T/C (dose: 25.0 mg/kg/injection, schedule: Q01DX009 (ip), vehicle: saline with Tween-80): 99 % of control | T/C [17]: 94 % of control | T/C [18]: 99 % of control

CCCCCCC[CH2][Sn]([CH2]C)([CH2]C)[O]C(C)=O
T/C (dose: 0.25 mg/kg/injection, schedule: Q01DX009 (ip), vehicle: saline with Tween-80): 122 % of control

CCOC1(OCC)Oc2c(c3ccccc3c3ccccc23)/C1=C1\c2c(c3ccccc3c3ccccc23)OC1(OCC)OCC
T/C [10]: 94 % of control | T/C [11]: 92 % of control

O=C1OCCOCCOCCOCCOC(=O)c2cncc1c2
T/C [12]: 101 % of control | T/C [13]: 108 % of control | T/C [14]: 105 % of control

Cc1noc(NCc2ccccc2)c1C
T/C (dose: 100.0 mg/kg/injection, schedule: Q04DX003 (ip), vehicle: saline with Tween-80): 104 % of control | T/C (dose: 200.0 mg/kg/injection, schedule: Q04DX003 (ip), vehicle: saline with Tween-80): 101 % of control | T/C (dose: 400.0 mg/kg/injection, schedule: Q04DX003 (ip), vehicle: saline with Tween-80): 100 % of control

C=CCN1C(=O)CSC1=S
T/C (dose: 100.0 mg/kg/injection, schedule: Q01DX009 (ip), vehicle: Klucel (hydroxypropylcellulose) (HPC)): 100 % of control | T/C (dose: 200.0 mg/kg/injection, schedule: Q01DX009 (ip), vehicle: Klucel (hydroxypropylcellulose) (HPC)): 108 % of control | T/C (dose: 400.0 mg/kg/injection, schedule: Q01DX009 (ip), vehicle: Klucel (hydroxypropylcellulose) (HPC)): 110 % of control

CCN(CC)CCN1C(=O)CCC1=O
T/C [7]: 100 % of control | T/C [8]: 109 % of control | T/C [9]: 104 % of control

O=c1c(N=Nc2nc3ccc([N+](=O)[O-])cc3s2)c(O)n(-c2ccccc2)c(=S)n1-c1ccccc1
T/C (dose: 60.0 mg/kg/injection, schedule: Q01DX005 (ip), vehicle: saline): 96 % of control | T/C (dose: 120.0 mg/kg/injection, schedule: Q01DX005 (ip), vehicle: saline): 96 % of control | T/C (dose: 240.0 mg/kg/injection, schedule: Q01DX005 (ip), vehicle: saline): 92 % of control

COc1ccc2c(C#N)cc3c(c[n+](C)c4ccccc34)c2c1
T/C (dose: 12.5 mg/kg/injection, schedule: Q04DX003 (ip), vehicle: distilled water + Tween-80): 105 % of control | T/C (dose: 25.0 mg/kg/injection, schedule: Q04DX003 (ip), vehicle: distilled water + Tween-80): 115 % of control

COc1cc2c(c(OC)c1OC)-c1ccc(OC)c(=O)cc1[C@@H](N(C)C)CC2
T/C (dose: 1.25 mg/kg/injection, schedule: Q01DX009 (ip), vehicle: Klucel (hydroxypropylcellulose) (HPC)): 100 % of control | T/C (dose: 2.5 mg/kg/injection, schedule: Q01DX009 (ip), vehicle: Klucel (hydroxypropylcellulose) (HPC)): 107 % of control | T/C [15]: 112 % of control and 117 % of control | T/C [16]: 118 % of control and 124 % of control

CC(C)C1CC(N(C)C)=CC(=S)N1 (centres undefined)
T/C [4]: 106 % of control | T/C [5]: 110 % of control | T/C [8]: 93 % of control | T/C [9]: 102 % of control

Cc1cnc2ccccc2c1/C=C/c1ccc(N(C)C)cc1
T/C [17]: 124 % of control | T/C (dose: 200.0 mg/kg/injection, schedule: Q01DX009 (ip), vehicle: saline with Tween-80): 153 % of control | T/C (dose: 400.0 mg/kg/injection, schedule: Q01DX009 (ip), vehicle: saline with Tween-80): 120 % of control
